Results on one molecule are retold here after patent US8771646B2, “Nicotinic acid and picolinic acid derived near-infrared fluorophores” (VisEn Medical, Inc., priority 2005, dated 2014).

The data set can be described thus: Absorption and emission maxima in water. The format is physicochemical.

Regarding `O=C(O)c1ccc(C(=C\C=C2/Sc3ccccc3N2CCCS(=O)(=O)O)/C=C/c2sc3ccccc3[n+]2CCCS(=O)(=O)O)nc1` [Example 6], the “Abs. max (water)” value was found to be 643 nm and the “Em. Max (water)” value amounted to 663 nm.
